Laboratory results taken from patent US8058243B2, “Method for treating a brain cancer with ifenprodil” (HSC Research and Development Limited Partnership, priority 2006, dated 2011).
Structures can show the parent of a compound that is named as a salt. Where two headings read alike, the source gives them in different places.

Test system: murine neural precursor cells (neurosphere cultures)
Assay: HTS of LOPAC library against secondary neurosphere cultures, MTT proliferation assay at 3 μM, day 7 (z score, P value)
Assay type: cell-based, mouse
[1] = LOPAC primary screen, neurosphere MTT proliferation, 3 μM, day 7
[2] = yes = significantly inhibited neurosphere proliferation (P<0.01) in the primary screen
[3] = yes/no: significantly inhibited neurosphere proliferation (P<0.01) in primary screen
[4] = yes/no: significantly inhibited neurosphere proliferation in the primary screen
[5] = LOPAC library screen, 3 μM, MTT, secondary neurosphere cultures, day 7
[6] = yes/no: significantly inhibited neurosphere proliferation (P<0.01) in the primary screen
[7] = LOPAC library screen, 3 μM, MTT, neurosphere cultures
[8] = LOPAC screen, neurosphere MTT proliferation, 3 μM, day 7
[9] = yes/no: significantly inhibited neurosphere proliferation in primary screen
[10] = LOPAC library screen at 3 μM, MTT, secondary neurosphere cultures, screened in singlets
[11] = primary LOPAC screen, 3 μM, MTT, neurosphere proliferation
[12] = LOPAC library screen at 3 μM, secondary neurosphere cultures, MTT

Compound: Br.C=CCN1CCc2c(cc(O)c(O)c2Cl)C(c2ccccc2)C1 (centres unmarked) [(B1)-Chloro-APB hydrobromide]
- Z Score: −0.111

Compound: CNCCc1c[nH]c2ccc(O)cc12.O=C(O)C(=O)O
- Z Score: 0.656
- Z score [1]: 0.656
- Activity [2]: no

Compound: Cc1cc(C)c(NC(=O)C[C@H](CC(=O)O)c2cccc3ccccc23)c(C(=O)N2CCC3(CCCC3)CC2)c1 [CR 2945]
- Z Score (168 h, 3 µM): 0.5451
- Z score (168 h, 3 µM): 0.545
- Activity [3]: no

Compound: O=[N+]([O-])c1cccc2c(Br)n[nH]c12 [3-Bromo-7-nitroindazole]
- Z Score (168 h, 3 µM): −1.68
- Z score (168 h, 3 µM): −1.680
- Activity [4]: no

Compound: CN1C[C@@H](NS(=O)(=O)N(C)C)C[C@@H]2c3cccc4c3c(cn4C)C[C@H]21 [Mesulergine hydrochloride]
- Z Score [5]: −2.16
- Z score [1]: −2.160
- Activity [6]: no

Compound: N/C(=N\C(=O)c1nc(Cl)c(N)nc1N)NCc1ccc(Cl)c(Cl)c1 [3′,4′-Dichlorobenzamil]
- Z Score: −2.581
- Z score [1]: −2.581
- Activity [6]: yes

Compound: Nc1nc(O)c2ncn(COC(CO)CO)c2n1 [Ganciclovir]
- Z Score [5]: −8.939
- Z score [1]: −8.939
- Activity [6]: yes

Compound: CCn1cc(C(=O)O)c(=O)c2ccc(Cc3ccccc3)nc21 [Amfonelic acid]
- Z Score [7]: 0.488
- Z score [8]: 0.488
- Activity [3]: no

Compound: CCc1cc(Cl)c(OC)c(C(=O)NC[C@@H]2CCCN2CC)c1O.Cl [S-(−)-Eticlopride hydrohloride]
- Z score [1]: −5.158
- Activity [6]: yes

Compound: CCCCCCCCCCCCCCCC(=O)NCC(COP(=O)([O-])OCC[N+](C)(C)C)OCC (racemic) [rac-2-Ethoxy-3-hexadecanamido-1-propylphosphocholine]
- Z Score (168 h, 3 µM): −1.269
- Z score (168 h, 3 µM): −1.269
- Activity [3]: no

Compound: O=c1[nH]c2ccccc2c2ccccc12 [6(5H)-Phenanthridinone]
- Z Score (168 h, 3 µM): 0.6765
- Z score (168 h, 3 µM): 0.677
- Activity [9]: no

Compound: C[C@]12CC[C@@H]3c4ccc(O)cc4CC[C@H]3[C@@H]1CC[C@@H]2O [beta-Estradiol]
- Z Score: −0.5623
- Z score [1]: −0.562
- Activity [3]: no

Compound: Cc1ccc(Cl)c(Nc2ccccc2C(=O)O)c1Cl [Meclofenamic acid sodium]
- Z Score [10]: 2.233
- Z score [1]: 2.233
- Activity [2]: no

Compound: CN(C)CCC=C1c2ccccc2COc2ccccc21 [Doxepin hydrochloride]
- Z Score (168 h, 3 µM): −1.012
- Z score (168 h, 3 µM): −1.012
- Activity [6]: no

Compound: CCN(CC)CCNC(=O)c1ccc(NC(C)=O)cc1.Cl [N-Acetylprocainamide hydrochloride]
- Z Score: −4.557
- Z score [1]: −4.557
- Activity [6]: yes

Compound: O=c1cc(-c2ccc(O)c(O)c2)oc2cc(O)cc(O)c12 [Luteolin]
- Z Score [5]: −1.323
- Z score [1]: −1.323
- Activity [3]: no

Compound: O=C(O)C=Cc1c[nH]cn1 [4-Imidazoleacrylic acid]
- Z Score: −0.2635
- Z score [11]: −0.264
- Activity [4]: no

Compound: Br.CCCN(CCC)C1CCc2cccc(O)c2C1 (centres unmarked) [(B1)-8-Hydroxy-DPAT hydrobromide]
- Z Score: 0.6561

Compound: CC(C)(C)NCC(O)COc1cccc2[nH]c(=O)[nH]c12.Cl (centres unmarked) [(B1)-CGP-12177A hydrochloride]
- Z Score: −1.611

Compound: O=C1NC(c2cccc([N+](=O)[O-])c2)=CCN1c1ccccc1O [Icilin]
- Z Score [10]: 1.643
- Z score [8]: 1.643
- Activity [3]: no

Compound: CC[N+](C)(C)c1cccc(O)c1 [Edrophonium chloride]
- Z Score: −0.8064
- Z score [1]: −0.806
- Activity [3]: no

Compound: Cl.Nc1ccn([C@@H]2O[C@H](CO)[C@@H](O)[C@@H]2O)c(=O)n1
- Z Score [5]: −11.27
- Z score [1]: −11.274
- Activity [6]: yes

Compound: CCCCC[C@H](CC(=O)NO)C(=O)N[C@H](C(=O)N1CCC[C@H]1CO)C(C)C [Actinonin]
- Z Score (168 h, 3 µM): −3.501
- Z score (168 h, 3 µM): −3.501
- Activity [2]: yes

Compound: O=C(O)[C@@H]1[C@H](C(=O)O)[C@H]2CC[C@@H]1O2 [Endothall]
- Z Score: −1.143
- Z score [1]: −1.143
- Activity [3]: no

Compound: CN[C@H](CC(=O)O)C(=O)O [N-Methyl-D-aspartic acid]
- Z Score: −1.86
- Z score [1]: −1.860
- Activity [2]: no

Compound: O=C1Nc2ccccc2/C1=C1/Nc2ccccc2/C1=N\O [Indirubin-3′-oxime]
- Z Score [12]: −0.3965
- Z score [1]: −0.397
- Activity [3]: no

Compound: COCCc1ccc(OCC(O)CNC(C)C)cc1.O=C(O)C(O)C(O)C(=O)O (stereo not drawn) [(B1)-Metoprolol (+)-tartrate]
- Z Score: −0.2689

Compound: COc1ccc2c(c1OC)C(=O)O[C@@H]2[C@H]1c2c(cc3c(c2OC)OCO3)CCN1C.Cl [Noscapine hydrchloride]
- Z Score [5]: −2.455
- Z score [1]: −2.455
- Activity [6]: yes

Compound: Tyrphostin AG 808
- Z Score [5]: −1.315
- Z score [11]: −1.315
- Activity [4]: no

Compound: C=CCN1CC[C@]23CCCC[C@H]2[C@H]1Cc1ccc(O)cc13 [Levallorphan tartrate]
- Z Score [12]: −0.3465
- Z score [1]: −0.346
- Activity [2]: no

Compound: Nc1ncnc2c1ncn2[C@@H]1O[C@H](CO)[C@@H](O)[C@H]1O [Adenosine]
- Z Score [12]: −0.2086
- Z score [11]: −0.209
- Activity [4]: no

Compound: c1ccc2c(CC3=NCCN3)cccc2c1 [Naphazoline hydrochloride]
- Z Score [5]: −1.724
- Z score [1]: −1.724
- Activity [2]: no

Compound: CNCCC(Oc1ccc(C(F)(F)F)cc1)c1ccccc1 (centres unmarked) [Fluoxetine hydrochloride]
- Activity: no
- Z Score [5]: −1.311
- Z score [1]: −1.311

Compound: CCN1C[C@]2(C)CC[C@H](O)[C@]34C1[C@@H](C[C@H]23)[C@@]1(O)C[C@H](OC)[C@H]2C[C@@H]4[C@@H]1[C@H]2O [Karakoline]
- Z Score: −1.625
- Z score [1]: −1.625
- Activity [3]: no

Compound: CC(C)[C@H](CO)Nc1nc(Nc2cccc(Cl)c2)c2ncn(C(C)C)c2n1 [Purvalanol A]
- Z Score [5]: −11.23
- Z score [1]: −11.234
- Activity [6]: yes

Compound: CCCCCCCCCCCCCCC[C@H](O)[C@H](N)CO (racemic) [DL-erythro-Dihydrosphingosine]
- Z Score [7]: −0.0785
- Z score [8]: −0.079
- Activity [3]: no

Compound: O=C(O)CCCCCCC1C(=O)NC(=O)N1CCC(O)C1CCCCC1 (centres unmarked) [BW 245C]
- Z Score: 1.036
- Z score [1]: 1.036
- Activity [9]: no

Compound: CN1C[C@H](O)[C@@H](O)[C@H](O)[C@H]1CO [N-Methyl-1-deoxynojirimycin]
- Z Score: −1.335
- Z score [1]: −1.335
- Activity [2]: no

Compound: Cn1c(=O)c2[nH]c(-c3ccccc3)nc2n(C)c1=O [1,3-Dimethyl-8-phenylxanthine]
- Z Score (168 h, 3 µM): 0.7518
- Z score (168 h, 3 µM): 0.752
- Activity [9]: no

Compound: COc1cc2nc(N3CCN(C(=O)C4CCCO4)CC3)nc(N)c2cc1OC (centres unmarked) [Terazosin hydrochloride]
- Activity: no
- Z Score [7]: −0.05722
- Z score [11]: −0.057

Compound: Cl.Clc1ccc(N2CCN(Cc3c[nH]c4ncccc34)CC2)cc1 [L-745,870 hydrochloride]
- Z Score: −11.27
- Z score [1]: −11.274
